Source: a melting point compilation (Tetko et al.; mined from patent text by program, amines drawn as free bases though some values may be those of a salt)

SMILES	melting point
COc1cc(-c2nc3ccc(O)cc3n2Cc2ccccc2C(F)(F)F)cc(OC)c1OC	191 °C
Clc1ccc2[nH]c(-c3ccccc3)cc2c1	195 to 196 °C
CNC(=O)c1c(-c2ccccc2)oc(-c2ccccc2)cc1=O	196 to 197 °C
CC(=O)OCc1csc(=S)n1CCC(=O)O	144 °C
COc1cccc(NC(=O)Nc2ccc(N3CCN(C(=O)Nc4ccc(OCCO)cc4Cl)CC3)cc2)c1	198 to 201 °C
COC(=O)C1=C(O)c2sc3ccccc3c2S(=O)(=O)N1Cc1ccc(OC)cc1	163 to 164 °C
CS(=O)c1ccc(-c2nc(-c3nc4ccccc4c(=O)[nH]3)ccc2OCCO)cc1 (configuration not stated)	261 to 262 °C
Nc1ncnc2c1c(-c1ccc(F)cc1)cn2-c1ccccc1	202 to 203 °C
Cc1nc2c(O)nc3ccccc3c2n1C	> 300 °C
CNC(=O)Nc1cc(C(C)(C)COC)on1	65 to 67 °C
O=C(O)CCCCCCCNS(=O)(=O)c1cccc(Cl)c1	85 to 86 °C
COC(=O)c1ccc(CNC(=O)c2ccc3n2Cc2ccccc2N(C(=O)COc2ccc(Cl)cc2C)C3)cc1	165 to 167 °C
CCOc1ccc2c(c1)cc1n2CCC1	101 to 102 °C
C#CCSc1nn(C(=O)NS(=O)(=O)c2c(C)cccc2OCCC)c(=O)n1C	151 °C
Cc1cc(N)nc(CCc2nc3cc(-c4cccc(O)c4)cnc3[nH]2)c1	162 °C
Cc1c(-c2ccc(O)cc2)n(Cc2ccc(OCCN3CCC(C)CC3)cc2)c2ccc(O)cc12	154 to 162 °C
COc1ccc(N2CCN(CCC3OCCc4cc(C(N)=O)ccc43)CC2)cc1 (configuration not stated)	180 to 182 °C
CC(=O)Nc1cc(C2=NOC(c3cc(Cl)cc(Cl)c3)(C(F)(F)F)C2)ccc1-n1cncn1 (configuration not stated)	230 to 233 °C
O=c1cc(NCCCN2CCN(c3cccc4c3OCCO4)CC2)cn[nH]1	158 to 160 °C
Cn1c(=O)c2cccnc2n(-c2cccc([N+](=O)[O-])c2)c1=O	234 to 235 °C
CC(=O)OCCn1ccc(=O)c(OCc2ccccc2)c1C(OC(C)=O)c1cccc(F)c1 (configuration not stated)	148 to 149 °C
CCCCNC(=O)C=C(C)C=CC=C(C)C=Cc1c(C)cc(OC)c(C)c1C	178 °C
Cc1ccccc1C(=O)c1nc(Cl)ccc1[N+](=O)[O-]	111 to 112 °C
O=C(COC1CCCCO1)c1ccccn1 (configuration not stated)	63 to 65 °C
O=C(O)c1cn(C2CC2)c2c(F)c(N3CC(n4ccnn4)C3)c(F)cc2c1=O	315 to 316 °C
Cc1cc2c(-c3cccc(C=O)c3)c(CC(=O)Nc3ccc(Cl)cc3C(F)(F)F)c(=O)oc2cc1Cl	232 to 233 °C

SMILES	melting point
Cc1cccc(COc2nn3c(-c4ccccc4)nnc3c3ccccc23)n1	186 to 187 °C
CCN(CC)CCNc1ccc(N2CCOC2=O)cc1[N+](=O)[O-]	124 °C
COc1ccc(C(C)(c2ccc(OC)cc2)c2ccc(OC)cc2)cc1	160 °C
COc1ccc2c(c1Br)CCC1CN(C)CC21 (configuration not stated)	144 to 146 °C
Cc1cc(CSCCNC(=C[N+](=O)[O-])NCC(O)c2ccccc2)sc1CN(C)C (configuration not stated)	114 to 115 °C
CCc1cccc2c(/C=C(\C)C(=O)O)cc(OC)c(OCOC)c12	127 to 128 °C
O=C(Nc1nc2cnccc2s1)Oc1ccccc1	> 290 °C
CNS(=O)(=O)N1CCn2c(c(C(N)=O)c(Cl)c2-c2ccccc2)C1	193 to 196 °C
COC1CCC2C3CCC4CC(=O)C=CC4(C)C3CCC12C (configuration not stated)	115 to 117 °C
c1ccc(-c2nc(CSc3nc4cccc5c4n3CCC5)cs2)cc1	116 to 118 °C
CC1(C)NS(=O)(=O)c2cc([N+](=O)[O-])ccc21	187 °C
N=C(Nc1ccccc1CN1CCOCC1)N1CCOCC1	118 to 119 °C
COc1cc(C)cc2c(Br)ccc(OC(C)C)c12	78 °C
O=C1CC(c2ccccc2Cl)Cc2nccc(Cl)c21 (configuration not stated)	130 to 131 °C
CC1CCCN(S(=O)(=O)c2ccc(OC(C)C)c(C(=O)O)c2)C1 (configuration not stated)	102 to 104 °C
COc1ccccc1-c1ccc(C#N)c(=O)[nH]1	236 to 238 °C
CCOC(=O)c1cn(C2CC2)c2nc(N3CCC(NCC(C)=O)C3)c(F)cc2c1=O (configuration not stated)	203 to 204 °C
Clc1cc(CCc2ccccn2)c2oc(-c3ccc4[nH]nnc4c3)nc2c1	242 to 244 °C
COc1c(Cl)nc(N2CCOCC2)nc1Cl	116 °C
O=c1c(-c2ccc(F)cc2)c(-c2ccc(SC(F)(F)F)cc2)cnn1Cc1ccccc1	145 to 146 °C
NC(=O)c1cc2c(SC3CCCCC3)cncc2s1	205 to 207 °C
COC(=O)[C@@H](Cc1ccccc1)NC(=O)[C@@H](Cc1c[nH]c2ccccc12)NC(=O)OCc1ccccc1	130 to 131 °C
CCOC(=O)Cn1c(=O)sc2ccc(C3=NNC(=O)NC3C)cc21 (configuration not stated)	200 to 202 °C
Nc1cccnc1NCc1ccc(Cl)cc1	123 to 125 °C
O=c1[nH]nc(-c2ccc(NN=C(c3ccccc3)c3ccc(O)cc3O)cc2)c2ccccc12	160 to 170 °C
CCCc1c(OCc2ccccc2)ccc2c1OC(CCC(=O)O)(CCC(=O)O)CC2=O	202 to 205 °C

SMILES	melting point
Cc1c(SCc2cccs2)ccnc1CSc1nc2ccccc2[nH]1	131 to 133 °C
COc1ccc(Cn2nnnc2S(=O)(=O)c2ccc(C)cc2)cc1	125 to 126 °C
Cc1sc2ncc(C(O)CCCc3ccccc3)n2c1C (configuration not stated)	167 to 169 °C
COc1cc(Cl)ccc1C(Nc1ccc(F)c2nc(C)ncc12)C(O)(C=C(C)C)C(F)(F)F (configuration not stated)	118 °C
CC(C)Oc1cc(CCC(=O)NS(=O)(=O)c2ccc(C(F)(F)F)cc2)n(Cc2ccc(Cl)cc2Cl)n1	167 to 169 °C
CCOC(=O)c1nc(O)n2c1c(=O)n(C)c1cc(C(F)(F)F)ccc12	> 300 °C
CC(C)(C)C(=O)Nc1cnc(C(=O)CO)cn1	169 to 172 °C
O=C1CCC(N2Cc3c(OCc4ccc(CN5CCN(c6ncccn6)CC5)cc4)cccc3C2=O)C(=O)N1 (configuration not stated)	142 to 144 °C
CCn1ccc2c(c1=O)CN=C(N1CCNCC1)N2	117 to 120 °C
CCCSc1nsnc1O	84 to 85 °C
C[C@H](NC(=O)OC(C)(C)C)C(=O)N(CC(=O)N1CCC[C@H]1C(=O)OCc1ccccc1)C1Cc2ccccc2C1	135 to 136 °C
COc1ccccc1SCCCCCC(=O)O	81 to 82 °C
CC(C)Oc1cc(-n2nc(C(F)F)n(C)c2=O)c(Cl)cc1Cl	95 to 97 °C
CCc1cc(CCc2nc3ccccc3o2)c(=O)[nH]c1C	155 to 156 °C
CCOP(=O)(OCC)c1nc(N2CCCC2)nc(N2CCCC2)n1	65 to 69 °C
O=C1OC(=O)c2c1ccc1ncccc21	247 to 250 °C
CCOC(=O)c1cnc(Nc2cc(OC)c(OC)c(OC)c2)nc1-c1ccccc1	64 to 65 °C
CCN1CCC(OC)(c2cccc(F)c2F)C1 (single isomer, unassigned; (+))	104 to 106 °C
Cc1ccc(S(=O)(=O)OCC2Cc3c(Cl)cc4c(c3O2)CCC4)cc1 (configuration not stated)	95 to 97 °C
N#Cc1ccc(C(=O)C23CCCN2C(=O)N(c2cc(Cl)cc(Cl)c2)C3=O)cc1 (configuration not stated)	72.1 °C
Fc1ccc(C=Cc2ccc(C3COC(c4c(F)cccc4F)=N3)cc2)cc1 (configuration not stated)	154 to 156 °C
CCCC(=O)c1cc2c(=O)n(NS(C)(=O)=O)c(=O)[nH]c2cc1C(F)(F)F	236 to 239 °C
Nc1c(Cl)cnnc1Cl	176 to 178 °C
Cc1ccsc1C=Cc1nccn1C	287 to 288 °C
CCc1cc(=O)n(-c2cc(OC(C)C)c(Cl)cc2F)c(=O)n1C	72 to 74 °C
Oc1c2c(nn1-c1nc3ccccc3[nH]1)CCc1ccccc1-2	205 to 206 °C

SMILES	melting point
CON=C(C#N)c1ccccc1COc1cccc(Cl)c1	62 to 63 °C
Cn1cnc2c1c1n[nH]c(=O)n1c(=O)n2Cc1ccccc1	295 °C
O=C1OC(=O)c2cc3occc3c3cccc1c23	160 to 165 °C
CCCCCCCN(CC)C(=O)Cc1ccc(N)cc1	172 to 174 °C
C[C@@H](CO)[C@](O)(Cn1cncn1)c1ccc(F)cc1F	93 to 95 °C
CC(=O)c1ccc2c(c1)ncn2-c1cccc(-c2cnc(N)nc2)c1	275 to 278 °C
Cn1ccc(-c2cccc(C=O)n2)n1	98 to 100 °C
Cc1cc(S(N)(=O)=O)ccc1NC(=O)CNc1ccccc1	195 to 196 °C
O=C(NCc1ccccc1)c1cc(O)c(O)c([N+](=O)[O-])c1	185 to 189 °C
CC(C)(C)P(=O)(O)OCCCN	253 to 255 °C
CN(C)c1ccc(C2(c3ccc(N(C)C)cc3N(C)C)OC(=O)c3ccccc32)c(N(C)C)c1	186 to 188 °C
CCCC1(C)OC(=O)C(c2ccc(F)cc2)=C1c1ccc(S(C)(=O)=O)cc1 (configuration not stated)	112 to 113 °C
COc1cc(C(C)C)c2c(c1)S(=O)(=O)N(COC(=O)c1c(Cl)ccc(O)c1Cl)C2=O	152 to 154 °C
O=C1c2cccnc2-c2cccnc21	158 to 159 °C
COc1ccc(CN2CCCc3cc(O)c(OC)cc3C2)cc1	105 to 107 °C
CC(=O)c1cn(S(=O)(=O)c2ccccc2)c2nccc(OCc3ccccc3)c12	164 to 166 °C
COc1ccc(C(=O)c2[nH]c3cc(Cl)ccc3c2CC(=O)O)cc1	187 to 190 °C
CS(=O)(=O)c1ccc(-c2ccc(C(F)(F)F)n2-c2ccc(F)cc2)cc1	136 to 139 °C
CCn1cc(C(=O)O)c(=O)c2ccc(N3CCNCC3)nc21	272 to 273 °C
COc1ccc(-c2nn(CC3CCCC3)c(=O)cc2-c2ccncc2)cc1	119 to 120 °C
CNC(=NC#N)NCCSc1nccc(NC(N)=NCC(F)(F)F)n1	218 to 221 °C
CCOC(=O)CCc1cc(O)nn1-c1ccccc1	150 to 151 °C
CC1CC(c2ncc3nccc-3[nH]2)C(C)C(c2ccccc2)N1 (configuration not stated)	131 to 132 °C
CCC(C(=O)O)N(C(=O)c1cn(-c2cccc(C(F)(F)F)c2)nc1C)c1ccc(OCC(C)(C)C)c(C#N)c1 (configuration not stated)	156 to 158 °C
